Like-named read-outs stand apart in the source and are kept apart here. Residues, ends and D or L forms follow the SMILES beside them.
Tests used:
[1] = system: Arachidonic Acid Induced Inflammation; assay type: in vivo, mice; conditions: for % Reduction of Ear Swelling / Ear Thickness: sc minipump
Protocol: The anti-inflammatory properties of CT-112 (SEQ. ID NO: 1) were assessed using a standardized assay for anti-inflammatory activity, i.e., the mouse ear model in which arachidonic acid (AA) is used to induce an inflammatory reaction (Young et al., 1984, J. Invest. Dermatol. 82:367-371; Doherty, et al., 1988, J. Invest. Dermatol. 91:298-302).
Female mice (C57BL/6UAF, Charles River Breeding Laboratories, approximately 15-18 g) were obtained and acclimated for 2 weeks prior to use. The animals were approximately 14 weeks old at the start of the study.
To prepare minipumps for implantation, CT-112 (SEQ. ID NO: 1) was dissolved in PBS. The material was loaded into Alzet minipumps set to deliver 0.05 (5 animals), 0.1 (10 animals), 1 (10 animals), or 2.5 (5 animals) mg of CT-112 (SEQ. ID NO: 1) per animal per day. Minipumps for implantation into control animals contained only PBS. As a positive control, one set of 10 mice received 100 mg/kg of phenidone, a potent 5-lipoxygenase inhibitor which acts as an anti-inflammatory agent, 15 min prior to challenge with AA.
For subcutaneous implantation of minipumps, animals were anesthetized with Ketamine/Xylazine. The Ketamine (Aveco Lot #440140) was injected at 80 mg/kg and the Xylazine (Rugby Laboratories Lot #26040-B) at 16 mg/kg and the Alzet pumps were implanted subcutaneously in the dorsothoracic area. Animals were allowed to recover and then housed and given food and water ad libitum for 5 days.
On the sixth day following pump implantation, 0.01 ml of AA was applied to the inner and outer surfaces of the right ear by means of an automatic microliter pipette. One hr following AA application, the mice were sacrificed and ear thickness was measured with a Mitutoyo No. 7300 Gauge Caliper. The left ears were also measured as an internal control.
Mice were implanted with Alzet mini-pumps set to deliver 60 mg/kg/day for either 7, 3, or 1 days. A separate group of 5 mice received 3 intraperitoneal injections of CT-112 (60 mg/kg/injection) at 24, 1 and 0.25 hr prior to AA challenge. CT-112 (SEQ. ID NO: 1) was prepared for injection by dissolving the compound in Dulbecco's PBS to give a final CT-112 (SEQ. ID NO: 1) concentration of 5 mg/ml. The control mice were implanted with Alzet minipumps that delivered PBS for 7 days. The AA challenge was the same as described supra in Example 7.
Administration of CT-112 (SEQ. ID NO: 1) (60 mg/kg/injection) via multiple intraperitoneal injections was performed at the following times prior to AA challenge: • a) 6, 3, 1 and 0.25 hr; • b) 3, 1 and 0.25 hr; or • c) 1 and 0.25 hr.
In addition, the effect of a single administration of CT-112 (SEQ. ID NO: 1) (60 mg/kg) by intraperitoneal injection was performed at either 1 or 3 hr prior to AA challenge. Control mice had Alzet minipumps implanted to deliver PBS for 7 days prior to AA challenge. The AA challenge was the same as described supra in Example 7. The results of the multiple dosing regimens and the 1 hr and 3 hr single dosing regimens were compared to the anti-inflammatory activity of CT-112 (SEQ. ID NO: 1) delivered via Alzet minipump set to deliver 60 mg/kg/day for 7 days using 5 animals per treatment.
In a separate experiment, the effect of multiple intraperitoneal injections of CT-112 (SEQ. ID NO: 1) at either 6, 3, 1 and 0.25 hr, or 16, 3, 1 and 0.25 hr prior to AA challenge was assessed. The results of both multi-dosing regimens were compared to both phenidone (100 mg/kg administered 15 min prior to AA challenge) and CT-112 (SEQ. ID NO: 1) administered via Alzet mini-pump (60 mg/kg/day for 7 days). For this latter study, the number of animals receiving the single injection of CT-112 (SEQ. ID NO: 1) was increased from 5 to 10.
Administration to mice of CT-112 (SEQ. ID NO: 1) (60 mg/kg/injection) via multiple subcutaneous injections prior to AA challenge was performed at: • a) 6, 3, 1 and 0.25 hr; • b) 3, 1 and 0.25 hr; or • c) 1 and 0.25 hr. […]

acute toxicity in rats = assay type: in vivo; conditions: rats, 100, 500 or 1,000 mg/kg
Protocol: Rats were dosed with CT-112 (SEQ. ID NO: 1) at 100, 500 or 1,000 mg/kg. […] All rats returned to normal appearance the day after treatment.

[2] = 0.05 mg/animal/day, AA on sixth day

CC(C)[C@H](NC(=O)[C@H](CCC(N)=O)NC(=O)[C@H](CO)NC(=O)[C@@H](NC(=O)[C@@H](N)[C@@H](C)O)[C@@H](C)O)C(=O)N[C@@H](CCCNC(=N)N)C(=O)N1CCC[C@H]1C(=O)N[C@@H](CCCNC(=N)N)C(=O)O [CT-112, Thr-Thr-Ser-Gln-Val-Arg-Pro-Arg] (H-TTSQVRPR-OH)
% Reduction of Ear Swelling [1, 2]: 43.1%
Ear Thickness [1, 2]: 0.01577 ± 0.00155 (5) in
% Reduction of Ear Swelling ([1]; 0.1 mg/animal/day): 43.1%
Ear Thickness ([1]; 0.1 mg/animal/day): 0.01577 ± 0.00191 (10) in
% Reduction of Ear Swelling ([1]; 1.0 mg/animal/day): 89.0%
Ear Thickness ([1]; 1.0 mg/animal/day): 0.01128 ± 0.00291 (10) in
% Reduction of Ear Swelling ([1]; 2.5 mg/animal/day): 95.6%
Ear Thickness ([1]; 2.5 mg/animal/day): 0.0106 ± 0.00175 (5) in
Thickness Difference (Left-Right) ([1]; Table III, 1-day pump, 60 mg/kg/day): -0.00074 ± 0.00119 in
Thickness Difference (Left-Right) ([1]; Table III, 3-day pump, 60 mg/kg/day): -0.00115 ± 0.00058 in
Thickness Difference (Left-Right) ([1]; Table III, 7-day pump, 60 mg/kg/day): -0.00051 ± 0.00116 in
Thickness Difference (Left-Right) ([1]; Table III, ip 60 mg/kg/injection at 24, 1 and 0.25 hr prior to AA): 0.00226 ± 0.00124 in
Thickness Difference (Left-Right) ([1]; Table IV, 7-day pump, 60 mg/kg/day): 0.00033 ± 0.00065 in
Thickness Difference (Left-Right) ([1]; Table IV, ip 60 mg/kg/injection at 1 and 0.25 hr prior to AA): 0.00192 ± 0.00148 in
Thickness Difference (Left-Right) ([1]; Table IV, ip 60 mg/kg/injection at 3, 1 and 0.25 hr prior to AA): 0.00141 ± 0.00138 in
Thickness Difference (Left-Right) ([1]; Table IV, ip 60 mg/kg/injection at 6, 3, 1 and 0.25 hr prior to AA): 0.00144 ± 0.00126 in
Thickness Difference (Left-Right) ([1]; Table IV, single ip 60 mg/kg 1 hr prior to AA): 0.00308 ± 0.00189 in
Thickness Difference (Left-Right) ([1]; Table IV, single ip 60 mg/kg 3 hr prior to AA): 0.00116 ± 0.001 in
Thickness Difference (Left-Right) ([1]; Table V, 7-day pump, 60 mg/kg/day): -0.00003 ± 0.0012(5) in
Thickness Difference (Left-Right) ([1]; Table V, ip injections at 6, 3, 1 and 0.25 hr prior to AA): 0.00249 ± 0.0017(10) in
Thickness Difference (Left-Right) ([1]; Table V, ip injections at 16, 3, 1 and 0.25 hr prior to AA): 0.00283 ± 0.00218(10) in
Thickness Difference (Left-Right) ([1]; Table VI, 7-day pump, 60 mg/kg/day): 0.00083 ± 0.00084 in
Thickness Difference (Left-Right) ([1]; Table VI, sc 60 mg/kg/injection at 1 and 0.25 hr prior to AA): 0.00195 ± 0.00131 in
Thickness Difference (Left-Right) ([1]; Table VI, sc 60 mg/kg/injection at 3, 1 and 0.25 hr prior to AA): 0.00193 ± 0.0007 in
Thickness Difference (Left-Right) ([1]; Table VI, sc 60 mg/kg/injection at 6, 3, 1 and 0.25 hr prior to AA): 0.00147 ± 0.00041 in
Thickness Difference (Left-Right) ([1]; Table VI, single sc 60 mg/kg 1 hr prior to AA): 0.00174 ± 0.00128 in
Thickness Difference (Left-Right) ([1]; Table VI, single sc 60 mg/kg 3 hr prior to AA): 0.00213 ± 0.00089 in
Thickness Difference (Left-Right) ([1]; Table VII, 3 day pump, 60 mg/kg/day): 0.00127 ± 0.00128 in
Thickness Difference (Left-Right) ([1]; Table VII, single ip 3 hr prior to AA): 0.00242 ± 0.00187 in
Thickness Difference (Left-Right) ([1]; Table VII, single sc 1 hr prior to AA): 0.00214 ± 0.00122 in
Thickness Difference (Left-Right) ([1]; Table VII, single sc 3 hr prior to AA): 0.00243 ± 0.00107 in
Thickness Difference (Left-Right) ([1]; Table VII, single sc 6 hr prior to AA): 0.00117 ± 0.00066 in
Thickness Difference (Left-Right) ([1]; Table VII, single sc -.25 (hr) prior to AA): 0.00252 ± 0.00128 in
Thickness Difference (Left-Right) ([1]; Table VIII, 3 day pump, 60 mg/kg/day): 0.00058 ± 0.00086 in
Thickness Difference (Left-Right) ([1]; Table VIII, po 200 mg/kg/gavage at 1 and 0.25 hr prior to AA): 0.00241 ± 0.00124 in
Thickness Difference (Left-Right) ([1]; Table VIII, po 200 mg/kg/gavage at 3, 1 and 0.25 hr prior to AA): 0.0028 ± 0.00114 in
Thickness Difference (Left-Right) ([1]; Table VIII, po 200 mg/kg/gavage at 6, 3, 1 and 0.25 hr prior to AA): 0.00134 ± 0.00257 in
Thickness Difference (Left-Right) ([1]; Table VIII, single gavage 200 mg/kg 1 hr prior to AA): 0.00139 ± 0.00122 in
Thickness Difference (Left-Right) ([1]; Table VIII, single gavage 200 mg/kg 3 hr prior to AA): 0.00031 ± 0.00198 in
Thickness Difference (Left-Right) ([1]; Table XI, 6 mg/kg/day, minipump, AA three days after implantation): 0.00381 ± 0.00066 in
Thickness Difference (Left-Right) ([1]; Table XI, 60 mg/kg/day, minipump, AA three days after implantation): 0.00095 ± 0.00064 in
Thickness Difference (Left-Right) ([1]; Table XIII, 24 hr via Alzet pump, 60 mg/kg/day): 0.00132 ± 0.00086 in
Difference Treatment (Left - Right) ([1]; Table XIV, 24 hr via Alzet pump, 60 mg/kg/day): 0.00134 ± 0.00044 in
Thickness Difference (Left-Right) ([1]; Table XV, 24 hr via Alzet pump, 60 mg/kg/day): 0.00154 ± 0.00092 in
% Inhibition of Inflammation ([1]; mouse, in vivo, 6 mg/kg/day): 40.8%
% Inhibition of Inflammation ([1]; mouse, in vivo, 60 mg/kg, 3 h): 78.5%
% Inhibition of Inflammation ([1]; mouse, in vivo, 200 mg/kg, 1 h): 72.3%
% Inhibition of Inflammation ([1]; mouse, in vivo, 200 mg/kg, 3 h): 93.8%
% Inhibition of Inflammation ([1]; mouse, in vivo, ip, 60 mg/kg): 62%
% Inhibition of Inflammation ([1]; mouse, in vivo, ip, 3 h): 37.2%
inhibition of the inflammatory process ([1]; mouse, in vivo, po, 200 mg/kg): 52-94%
% Inhibition of Inflammation ([1]; mouse, in vivo, sc): 34.7%
% Inhibition of Inflammation ([1]; mouse, in vivo, sc, 60 mg/kg, 1 h): 71.8%
% Inhibition of Inflammation ([1]; mouse, in vivo, sc, 60 mg/kg, 3 h): 65.5%
% Inhibition of Inflammation ([1]; mouse, in vivo, sc, 1 h): 44.5%
% Inhibition of Inflammation ([1]; mouse, in vivo, sc, 3 h): 36.9%
% Inhibition of Inflammation ([1]; mouse, in vivo, sc, 6 h): 69.6%
reduction in inflammation ([1]; multiple IP injections at 6, 3, 1 and 0.25 hr or 16, 3, 1 and 0.25 hr prior to AA): 56-61%
duration of activity ([1]; subcutaneous injection, 60 mg/kg): greater than 6 hr
inhibition of the inflammatory process ([1]; subcutaneous injection, all multi-dosing and single-dosing regimens, 60 mg/kg/injection): approximately 70%
lesions at necropsy (acute toxicity in rats): No lesions were visible
mean body weight or mean body weight gain (acute toxicity in rats; control vs treated): no statistical differences
clinical effects (acute toxicity in rats; several rats at 500 and 1,000 mg/kg, day of treatment): Transient clinical effects (hypoactivity, hypersensitiviy, staggered gait, cyanosis and absence of righting reflex)

Reference: patent publication EP0714404B1, “ANTI-INFLAMMATORY PEPTIDES” (CURATIVE TECHNOLOGIES, INC., priority 1993, dated 1995)
